The values that follow are results of earlier work, collected in patent publication US20180346488A1, “CYTOTOXIC BENZODIAZEPINE DERIVATIVES AND CONJUGATES THEREOF” (priority 2017, published 2018).

For the data set the following is noted: Phase I clinical evaluation; cited from earlier work.

Turning to `C=C1C[C@H]2C=Nc3cc(OCCCOc4cc5c(cc4OC)C(=O)N4CC(=C)C[C@H]4C=N5)c(OC)cc3C(=O)N2C1` [SJG-136], the “DNA damage in circulating lymphocytes” value is given as “noted at all doses”; the adverse effects noted entry was “vascular leak syndrome, peripheral edema, liver toxicity and fatigue”; the maximum tolerated dose is reported as 45 μg/m^2.
